[invAb] = inverted abasic unit; m = 2'-O-methyl; r = 2'-OH (RNA); f = 2'-fluoro
Key:
CTGF mRNA [1] = assay: CTGF mRNA knockdown (Taqman RT-PCR) after siNA transfection of human NHLF cells; format: cell-based; conditions: 10 nM siNA, 24 hrs, average of 3 experiments, vs non-targeting control
How it was run: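 Normal human lung fibroblasts (5000 cells/well) were transfected 24 h after plating with 10 nM siNA complexed with RNAiMax and harvested 24 h later without a media change. CTGF mRNA was measured by TaqMan RT-qPCR on Cells-to-CT lysates, with β-actin and GAPDH assayed alongside. Knockdown was calculated by comparative Ct (ΔΔCt) against non-targeting control siNA.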

CTGF mRNA [2] = assay: CTGF mRNA knockdown (Taqman RT-PCR) after siNA transfection of mouse NIH 3T3 cells; format: cell-based; conditions: mouse NIH3T3 cells, 10 nM siNA, 24 hrs, average of 3 experiments, vs non-targeting control
How it was run: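 Mouse NIH 3T3 cells, 5000/well, transfected 24 h after plating with siNA at 10 nM final using RNAiMax, 24 h exposure without media change. CTGF mRNA by TaqMan RT-qPCR with GAPDH, knockdown via comparative Ct (2^−ΔΔCt) against non-targeting control siNA.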

Question: With “48061-DC: siNA duplex; sense SEQ ID NO: 87 B AcucAuuAGAcuAuAAcuu TTB; antisense SEQ ID NO: 88 AAGuuAuAGucuAAuGAGuUU (sense ACUCAUUAGACUAUAACUUTT; antisense AAGUUAUAGUCUAAUGAGUUU; sense: DNA at AGT, 2'-fluoro at CU, [invAb] at 5' end, 3' end, backbone not given here; antisense: sugars from the 5' end rrrffmfmmfffmmfmmmfmm, backbone not given here)” as the substance, how does the “% KD Human” value (CTGF mRNA [1]) read?
Answer: Its value is 30 ± 12%.

Question: What about the “% KD Mouse” value (CTGF mRNA [2]) of the same substance?
Answer: Its value is 73 ± 5%.

Question: “48078-DC: siNA duplex; sense SEQ ID NO: 121 B GGuAcuAGcuGAGGuuAuu TTB; antisense SEQ ID NO: 122 AAUAAccucAGcuAGuAccUU (sense GGUACUAGCUGAGGUUAUUTT; antisense AAUAACCUCAGCUAGUACCUU; sense: DNA at AGT, 2'-fluoro at CU, [invAb] at 5' end, 3' end, backbone not given here; antisense: sugars from the 5' end rrrmmffffmmffmmfmffmm, backbone not given here)” was tested. Which “% KD Human” value (CTGF mRNA [1]) did it give?
Answer: The value was 31 ± 6%.

Question: And the “% KD Mouse” value (CTGF mRNA [2])?
Answer: The value was 69 ± 1%.

Question: What does the source list for “48071-DC: siNA duplex; sense SEQ ID NO: 107 B ccAAcuAuGAuGcGAGccA TTB; antisense SEQ ID NO: 108 UGGcucGcAucAuAGuuGGUU (sense CCAACUAUGAUGCGAGCCATT; antisense UGGCUCGCAUCAUAGUUGGUU; sense: DNA at AGT, 2'-fluoro at CU, [invAb] at 5' end, 3' end, backbone not given here; antisense: sugars from the 5' end rrrfffmfmffmfmmffmmmm, backbone not given here)”?
Answer: % KD Human (CTGF mRNA [1]): 30 ± 15%; % KD Mouse (CTGF mRNA [2]): 21 ± 5%

Reference: patent publication US20120016011A1, “RNA Interference Mediated Inhibition of Connective Tissue Growth Factor (CTGF) Gene Expression Using Short Interfering Nucleic Acid (siNA)” (Merck Sharp & Dohme Corp., priority 2009, published 2012)
